Converted amounts (≈) assume the structure as drawn.
Tests used:
[1] = test system: MET3 promoter-CaERG1 cells; assay: Drug hypersensitivity whole cell assay, 384-well plate: MET3 promoter-CaERG1 cells with and without methionine; format: cell-based, Candida albicans; details: 0.05 mM methionine, 18 hours at 35° C, OD 595 nm, FIG. 10
Experimental: In order to determine if essential polynucleotide products could be reduced in fungal cells resulting in drug hypersensitivity, a high throughput whole cell assay was designed. The known C. albicans essential polynucleotide corresponding ERG1 polynucleotide in S. cervisiae was tested. CaERG 1 codes for squaline epoxidase and is known to be inhibited by terbinafine. The first polynucleotide copy was disrupted as described above and the second polynucleotide copy was modified by promoter swapping with MET3 promoter, also as described above.
The optimal cell density needed to control cell growth in a 384-well plate within the log phase after 18 hours incubation at 35° C. was first determined. […] At different time intervals, the plate was withdrawn from the incubator and the cell growth was determined by reading absorbance at 590 nm on a Perkin Elmer 7000 machine.
In order to assess whether cells containing the ERG1−MET promoter construct would display hypersensitivity to terbinafine upon the addition of methionine in comparison to cells for which no methionine was added, cells were grown in the 384 well-plate as described above. […] After 18 hours of incubation, the OD readings were taken of the plates to measure cell growth (595 nm). […]

MET3P-ERG1 construct [2] = assay: Sensitivity of the MET3P-ERG1 construct to antifungal drugs (MICs, 96-well format plate); format: cell-based, Candida albicans; details: for MIC: Candida albicans, at 20 hrs, MET3P-ERG1 construct; for sensitivity to the drug altered by the presence of methionine: drugs not known to be inhibitors of the CaERG1 product
Experimental: In order to assess whether cells containing the ERG1−MET promoter construct would display hypersensitivity to terbinafine upon the addition of methionine in comparison to cells for which no methionine was added, cells were grown in the 384 well-plate as described above. A final concentration of 0.05 mM methinone was added to wells within one plate of cells and a control plate, in which SD+His broth was added in lieu of methionine was added to a second plate. 8 μl of various concentrations of terbinafine in 10.26% DMSO was added to both the control and test plates. The concentrations of terbinafine added to different wells ranged from 163 μg/ml to 0.02 μg/ml. […] After the addition of this inhibitor, both the control and experimental plates were incubated at 35° C. After 18 hours of incubation, the OD readings were taken of the plates to measure cell growth (595 nm). […] Increased sensitivity of cells containing the ERG1−MET3 was confirmed in a separate experiment using a 96-well format plate.
Furthermore, results of additional experiments conducted with the drugs sordarin and fluconazole which are not known to be inhibitors of the CaERG1 polynucleotide product confirm that sensitivity to these drugs is not altered by the presence of methionine.

[3] = test system: ergosterol biosynthetic pathway in strain caerg1Δ/PMET3-CaERG1; assay: Incorporation of labeled acetate into sterols (TLC, scintillation counting), control strain; format: cell-based, Candida albicans; details: FIG. 22A, lanes 1 and 2; 90 minute induction period
Experimental: (§1) Overnight cultures were diluted into fresh SD+histidine (His) broth and grown at 30° C. until logarithmic growth was established. Cultures were harvested by centrifugation. Cells were then separated into tubes at a final density of 0.25 OD600 containing either fresh SD+His broth or SD+His broth containing 5 mM methionine (Met) and 2.5 mM cysteine (Cys). At the end of either a 0.75, 1.5, 3 or 4.5 hour incubation period, the OD600 values of each tube were measured and cultures were adjusted to a density of 0.25 OD600 units per ml (2 mls per tube). Cultures were then pulsed with 2 μCi/tube of [^3H]-acetic acid for 60 minutes.
(§2) At the end of the labeling period, cells were pelleted and rinsed 1× with medium. The washed pellet was resuspended with 1 ml of 0.1 N HCl, transferred to glass screw-capped tubes, and incubated for 5 minutes at 85° C. […]
(§3) Dried samples were disolved in petroleum ether and spotted onto a 20 cm×20 cm silica gel 60 TLC plate. […] The location of radiolabeled spots on the TLC plate was determined by matching the exposed spots on the autoradiogram.
(§4) In order to quantitate the radioactivity associated with the ergosterol pathway products, the silica gel corresponding to the exposed spots was excised from the plate and mixed with 0.5 ml of water, then mixed with 5 mls of scintillation cocktail prior to scintillation counting. […]

[4] = test system: ergosterol biosynthetic pathway in strain fcg5Δ/PMET3-FCG5; assay: Incorporation of labeled acetate into sterols (TLC, scintillation counting), test strain; format: cell-based, Candida albicans; details: FIG. 22B; majority of the counts trapped in squalene
Experimental: as §1, §2, §3, §4

MET3P-ERG1 construct [5] = details: 0.5 mM methionine; growth monitored between 16 and 24 hours, OD 595 nm; FIG. 9
Experimental: Cells were diluted from these cultures to 757,002 cfu/ml in SD+His medium. 35 μl of the diluted cells were dispensed into wells of a 384-well plate containing 8 μl of 10.26% DMSO. […] Cell growth was monitored between 16 and 24 hours by reading the optical density at 595 nm.

SMILES	increase in sensitivity in the presence of methionine comparing to the no methionine control [1]	increase in sensitivity when promoter activity was down regulated by the presence of methionine (MET3P-ERG1 construct [2]; 96-well format plate, Table 7)	MIC (MET3P-ERG1 construct [2]; presence of methionine) [µg/mL]	effect on ergosterol biosynthesis (TLC autoradiogram) [3]	effect on incorporation of radiolabelled acetate into ergosterol (TLC autoradiogram) [4]	MIC (MET3P-ERG1 construct [2]; absence of methionine) [µg/mL]	sensitivity to the drug altered by the presence of methionine (MET3P-ERG1 construct [2])	reduction of cell growth (MET3P-ERG1 construct [5])
CN(C/C=C/C#CC(C)(C)C)Cc1cccc2ccccc12 [Terbinafine]	4-8 fold	16-32 fold	0.5	a block in ergosterol biosynthesis at squalene	blocked the incorporation of radiolabelled acetate into ergosterol	–	–	–
OC(Cn1cncn1)(Cn1cncn1)c1ccc(F)cc1F [Fluconazole]	–	–	1	–	–	1 (≈ 3.27 µM)	not altered	–
CO[C@H]1[C@@H](O)[C@H](O)[C@H](OC[C@@]23C[C@@H]4[C@H](C)CC[C@H]4[C@@]4(C=O)CC2C=C(C(C)C)[C@@]34C(=O)O)O[C@@H]1C [Sordarin]	–	–	0.5	–	–	0.5 (≈ 1.02 µM)	not altered	–
CSCC[C@H](N)C(=O)O [methionine]	–	–	–	–	–	–	–	approximately 50%
